Legend:
Type in all cases: in vivo
Details in all cases: 250 g/h, evaluated after 13 days
Avena fatua (AVEFA) [1] = test: Pre-emergence herbicidal glasshouse test, percentage damage
How it was run: (§1)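 Herbicidal effect was scored 13 days after a 250 g/h spray, using bands of 0-19% (1) through 80-100% (5). Sowing preceded spraying by 1 day for pre-emergence and 8 days for post-emergence. The glasshouse ran at 24/16 °C with 14 h light.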

Setaria faberi (SETFA) [2] = test: as above
How it was run: as §1

Lolium perenne (LOLPE) [3] = test: as above
How it was run: as §1

[4] = test system: Echinochloa crus-galli (ECHCG); test: as above
How it was run: as §1

[5] = test system: Alopecurus myosuroides (ALOMY); test: as above
How it was run: as §1

Avena fatua (AVEFA) [6] = test: Post-emergence herbicidal glasshouse test, percentage damage
How it was run: as §1

Lolium perenne (LOLPE) [7] = test: as above
How it was run: as §1

[8] = test system: Echinochloa crus-galli (ECHCG); test: as above
How it was run: as §1

[9] = test system: Alopecurus myosuroides (ALOMY); test: as above
How it was run: as §1

Setaria faberi (SETFA) [10] = test: as above
How it was run: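 Percentage damage was scored 13 days after treatment on a five-point scale (1=0-19% to 5=80-100%). Treatments were post-emergence sprays on 8-day-old wheat, barley and SETFA plants in a glasshouse (24/16 °C day/night, 14 h light, 65% humidity), using acetone/water 50:50 with 0.5% Tween 20 at the stated rates. Wheat additionally received cloquintocet-mexyl safener at 50 g/ha.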

SMILES | AVEFA PRE percentage damage (five point scale) (Avena fatua (AVEFA) [1]) | SETFA PRE percentage damage (five point scale) (Setaria faberi (SETFA) [2]) | LOLPE PRE percentage damage (five point scale) (Lolium perenne (LOLPE) [3]) | ECHCG PRE percentage damage (five point scale) [4] | ALOMY PRE percentage damage (five point scale) [5] | AVEFA POST percentage damage (five point scale) (Avena fatua (AVEFA) [6]) | LOLPE POST percentage damage (five point scale) (Lolium perenne (LOLPE) [7]) | ECHCG POST percentage damage (five point scale) [8] | ALOMY POST percentage damage (five point scale) [9] | SETFA POST percentage damage (five point scale) (Setaria faberi (SETFA) [10])
CC#Cc1cc(C)c(C2=C(OC(=O)c3ccncc3)CC3(CCN(C(=O)c4ccncc4)CC3)CC2=O)c(C)c1 [Compound P4] | 4 (4=60-79%) | 5 (5=80-100%) | 5 (5=80-100%) | 5 (5=80-100%) | 5 (5=80-100%) | 5 (5=80-100%) | 5 (5=80-100%) | 5 (5=80-100%) | 5 (5=80-100%) | 5 (5=80-100%)
CC#Cc1cc(C)c(C2=C(OC(=O)C(C)OC)CC3(CCN(C(=O)C(C)OC)CC3)CC2=O)c(C)c1 (centres unmarked) [Compound P6] | 5 (5=80-100%) | 5 (5=80-100%) | 5 (5=80-100%) | 5 (5=80-100%) | 5 (5=80-100%) | 5 (5=80-100%) | 5 (5=80-100%) | 5 (5=80-100%) | 5 (5=80-100%) | 5 (5=80-100%)
CC#Cc1cc(C)c(C2=C(OC(=O)OC)CC3(CCN(S(=O)(=O)CC)CC3)CC2=O)c(C)c1 [Compound P7, [9-(2,6-dimethyl-4-prop-1-ynyl-phenyl)-3-ethylsufonyl-10-oxo-3-azaspiro[5.5]undec-8-en-8-yl] methyl carbonate] | 5 (5=80-100%) | 5 (5=80-100%) | 5 (5=80-100%) | 5 (5=80-100%) | 5 (5=80-100%) | 5 (5=80-100%) | 5 (5=80-100%) | 5 (5=80-100%) | 5 (5=80-100%) | 5 (5=80-100%)
CC#Cc1cc(C)c(C2=C(OC(C)=O)CC3(CCN(C(N)=O)CC3)CC2=O)c(C)c1 [Compound P9] | 4 (4=60-79%) | 5 (5=80-100%) | 5 (5=80-100%) | 5 (5=80-100%) | 5 (5=80-100%) | 5 (5=80-100%) | 5 (5=80-100%) | 5 (5=80-100%) | 5 (5=80-100%) | 5 (5=80-100%)
CC#Cc1cc(C)c(C2=C(OC(=O)OC)CC3(CCN(C(=O)NC(=O)C(C)(C)C)CC3)CC2=O)c(C)c1 [Compound P10] | 5 (5=80-100%) | 5 (5=80-100%) | 5 (5=80-100%) | 5 (5=80-100%) | 5 (5=80-100%) | 5 (5=80-100%) | 5 (5=80-100%) | 5 (5=80-100%) | 5 (5=80-100%) | 5 (5=80-100%)

From patent publication US12043599B2, “Herbicidal compounds” (SYNGENTA PARTICIPATIONS AG, priority 2018, dated 2024)
